Key:
HepG2 cells [1] = test: Mitotoxicity, XTT viability in glucose vs galactose medium; conditions: Homo sapiens, HepG2, 24 h
Experimental: (§1) (A) Hepatotoxicity provoked by compound 4 was assessed after 72 h incubation of HepG2 cells in low glucose medium (5 mM) in the presence of compound 4 (0.25–100 μM). (B) Mitochondrial toxicity was determined after 24 h incubation of HepG2 cells in either high glucose medium (25 mM) or galactose medium (10 mM) in the presence of compound 4 (2.5–150 μM). Cell viabilities were recorded in triplicates in three independent experiments and expressed as percentage of vehicle control ± SD and IC50 values were determined by GraphPad Prism software using following equation: Y = Bottom + (Top–Bottom)/(1 + 10ˆ((LogIC50-X)^∗HillSlope)), where IC50 is the concentration of compound 4 that inhibits cell viability half way between Bottom and Top plateaus, X is compound 4 concentration and HillSlope describes the steepness of the family of curves. […] (C) Concentration-dependent effect on ROS level. HepG2 cells were treated with compound 4 (0.25–100 μM) for 72 h, and then the intracellular level of total ROS in relative fluorescence units (RFU) was detected. The data are presented as the mean ± SD for at least three independent experiments and each experiment was carried out in triplicate. Final concentration of DMSO in samples was 1%. […] Single asterisks (^∗) indicate a significant difference (P < 0.05) compared to 1% DMSO control (one-way ANOVA with Dunnett’s post-test).
(§2) HepG2 cells (ATCC®, United Kingdom) were grown in complete Minimal Essential Medium (EMEM) (5.5 mM glucose) medium, supplemented with 10% (v/v) fetal calf serum, 200 μg/mL of streptomycin, 200 U/mL of penicillin G and 4 mM glutamine. They were cultured under a humidified atmosphere containing 5% CO2 at 37°C.
(§3) The cytotoxicity of the tested compounds was assessed with use of XTT cell proliferation kit II (Roche Diagnostics GmbH, Mannheim, Germany) according to the manufacturer’s instructions. Briefly HepG2 cells were seeded in a 96-well plate at a density of 22,000 cells per well. After 24 h, the tested neurosteroids in a concentration range from 0.5 to 200 μM were added to the culture media and incubated for 72 h before the XTT dye was added. Mitochondrial toxicity was assessed in HepG2 cells using glucose and galactose conditioned media and XTT assay as a read out for cell viability. In brief, cells were seeded onto 96 well, clear bottom tissue culture plates at a density of 22,000 cells/well and left overnight to attach. Six hours prior to the neurosteroids treatment the media was replaced with 100 μL DMEM media containing either glucose (25 mM glucose; 1 mM pyruvate; 2 mM glutamine, 10% FBS) or galactose (10 mM galactose, 1 mM pyruvate, 6 mM glutamine, 10% FBS). After that, the tested neurosteroids in a concentration range from 0.5 to 200 μM were added in the fresh appropriate assay medium (glucose or galactose) and incubated for 24 h before the XTT dye was added. The XTT absorbance was recorded at 495 nm after 1 h incubation with the dye. Compounds were dissolved in DMSO to produce the stock solutions at the concentration of 10 mM, with exception of PAG, 1, 6 (5 mM), and 11 (2.5 mM). Results were expressed as percentages of change in viability compared to appropriate DMSO control. IC50 values were determined by GraphPad Prism version 5.00 for Windows (GraphPad Software, La Jolla, CA, United States). All experiments were done in triplicates in three independent experiments to check the reproducibility.

HepG2 cells [2] = test: Hepatotoxicity, XTT viability after 72 h; assay type: cell-based; conditions: Homo sapiens; 72 h, HepG2, 5.5 mM glucose; read-out: Hepatotoxicity IC50, 5.5 mM glucose
Experimental: Then, the cell viability (XTT assay) and reactive oxygen species (ROS) induction were evaluated.
as §1, §2, §3

Measured: IC50

C[C@@]12CCC[C@H]1[C@@H]1CC[C@@H]3C[C@H](NC(=O)[C@@H](N)CC(=O)O)CC[C@]3(C)[C@H]1CC2 [Compound 6, (S)-3-amino-4-(((3R,5R,8S,9S,10S,13S,14S)-10,13-dimethylhexadecahydro-1H-cyclopenta[a]phenanthren-3-yl)amino)-4-oxobutanoic acid]
> 200 µM: HepG2 cells [1]; read-out: Mitotoxicity IC50, 10 mM galactose | HepG2 cells [1]; read-out: Mitotoxicity IC50, 25 mM glucose | HepG2 cells [2]

— paper PMC6240685, “Strong Inhibitory Effect, Low Cytotoxicity and High Plasma Stability of Steroidal Inhibitors of N-Methyl-D-Aspartate Receptors With C-3 Amide Structural Motif” (Frontiers in Pharmacology, 2018)
